Reference: publication PMC9853328, “Potent Platinum(IV) Prodrugs That Incorporate a Biotin Moiety to Selectively Target Cancer Cells” (Pharmaceutics, 2022)
Several values for one entry are separate records, joined by “and”; a condition that tells them apart may be missing. Equal values may be shown once.

Key:
[1] = tested on: panel of cancer cell lines; experiment: MTT cytotoxicity averaged across the panel of cancer cell lines; type: cell-based
[2] = tested on: non-cancerous MCF10A breast cell line; experiment: MTT in vitro cytotoxicity assay, MCF10A; type: cell-based; conditions: 72 h drug exposure, n = 3, read-out: GI50 ± SEM, MCF10A
Procedure: (§1) The in vitro cytotoxicity assays were undertaken at Calvary Mater Hospital, Waratah, NSW, Australia, following a method previously published in the literature. A stock solution for each compound was prepared in DMSO (30 mM) and stored at −20 °C. The cell lines used in the study include HT29 colon, U87 glioblastoma, MCF-7 breast, A2780 ovarian, H460 lung, A431 skin, Du145 prostate, BE2-C neuroblastoma, SJ-G2 glioblastoma, MIA pancreas, and cisplatin-resistant ADDP ovarian (subclone of A2780) cancer cells, as well as the non-cancerous-derived MCF10A breast cell line. The cancer cell lines were cultured in a humidified atmosphere 5% CO2 at 37 °C and maintained in Dulbecco’s modified Eagle’s medium (Trace Biosciences, Sydney, Australia), supplemented with 10% foetal bovine serum, sodium bicarbonate (10 mM), penicillin (100 IU/mL), streptomycin (100 µg/mL), and glutamine (4 mM). The non-cancerous MCF10A cell line was maintained in DMEM:F12 (1:1) cell culture media, with 5% heat inactivated horse serum, supplemented with penicillin (50 IU/mL), streptomycin (50 µg/mL), glutamine (2 mM), HEPES (20 mM), epidermal growth factor (20 ng/mL), hydrocortisone (500 ng/mL), cholera toxin (100 ng/mL), and insulin (10 µg/mL). Cells were plated in duplicate in medium (100 µL) at a density of 2500–4000 cells per well in 96-well plates. On day 0, (24 h after plating) when the cells were in logarithmic growth, medium (100 μL) with or without the test agent was added to each well. The growth inhibitory effects were evaluated after 72 h drug exposure, using the MTT (3-(4,5-dimethylthiazol-2-yl)-2,5-diphenyltetrazolium bromide) assay, with the absorbance read at 540 nm. An eight-point dose–response curve was produced, which was used to determine the concentration at which growth was inhibited by 50% (GI50). This calculation was based on the difference between the optical density values on day 0 and those at the end of drug exposure. […] Experiments were conducted on three separate occasions and GI50 values were reported as the mean and standard error of the mean.

[3] = tested on: A2780 ovarian cancer cells; experiment: MTT in vitro cytotoxicity assay, A2780; type: cell-based; conditions: 72 h drug exposure, n = 3, read-out: GI50 ± SEM, A2780
Procedure: as §1

[4] = tested on: H460 lung cancer cells; experiment: MTT in vitro cytotoxicity assay, H460; type: cell-based; conditions: 72 h drug exposure, n = 3, read-out: GI50 ± SEM, H460
Procedure: as §1

[5] = tested on: A431 skin cancer cells; experiment: MTT in vitro cytotoxicity assay, A431; type: cell-based; conditions: 72 h drug exposure, n = 3, read-out: GI50 ± SEM, A431
Procedure: as §1

[6] = tested on: SJ-G2 glioblastoma cells; experiment: MTT in vitro cytotoxicity assay, SJ-G2; type: cell-based; conditions: 72 h drug exposure, n = 3, read-out: GI50 ± SEM, SJ-G2
Procedure: as §1

[7] = tested on: U87 glioblastoma cells; experiment: MTT in vitro cytotoxicity assay, U87; type: cell-based; conditions: 72 h drug exposure, n = 3, read-out: GI50 ± SEM, U87
Procedure: as §1

[8] = Lipophilicity by RP-HPLC (logkw); type: physicochemical; conditions: capacity factor in 100% water
Procedure: HPLC experiments were carried out using an Agilent Technologies (Melbourne, Australia) 1260 Infinity instrument, equipped with a Phenomenex (Sydney, Australia) Onyx^TM Monolithic C18 reverse phase column (100 × 4.6 mm, 130 Å). The mobile phase was made up of 0.06% TFA in water (solvent A) and 0.06% TFA in an acetonitrile:water (9:1) mixture (solvent B). Samples were eluted over a gradient of 0–100% (% B) for 15 min, at a flow rate of 1 mL/min, with a sample injection volume of 10 µL. Eluting peaks were detected using a PDA at 254 nm.
For lipophilicity experiments, RP-HPLC was utilised to determine the logkw of each compound, similarly to what has been previously published for similar complexes. Samples were eluted at various isocratic percentages, ranging from 18–30% solvent B. To determine the dead volume of the column, potassium iodide was used as an external dead volume marker. The retention time of each sample in each isocratic run ( tr ) and the dead volume time ( t0 ) were both substituted in Equation (1) to calculate the capacity factor ( k ). (1) k=tr−t0/t0
Following this, logk was plotted against the percentage of ACN. For each complex, a minimum of four concentrations of ACN were used. This produced a linear graph with the equation in the form:(2) logk=Sφ+logkw where S is the slope, φ is the percentage of ACN, and logkw is the y-intercept, which represents the capacity factor of the compound in 100% water.
It is important to explore the lipophilicity of a drug, as it is widely believed that increased lipophilicity results in greater cellular accumulation. To understand the lipophilicity of 1–4, RP-HPLC was utilised to determine the logkw of each complex. To calculate this, each complex was eluted at different isocratic percentages, whereby the retention time was used in Equation (1) to calculate the capacity factor (k). The percentage of the organic solvent was then plotted against log k for each isocratic percentage, producing a linear equation that allowed for logkw to be deduced using Equation (2) (Figure S38). The logkw value represents the capacity factor of the compound in 100% water and can be used to compare a series of compounds. Since 1–4 comprise the same axially bound ligand, biotin, the lipophilicity was influenced by the groups on the PL. The logkw of each complex is presented in Table 1, with their corresponding PL. The increasing lipophilicity of the complexes followed the order: 1 < 4 < 2 < 3.

[9] = tested on: HT29 colon cancer cells; experiment: MTT in vitro cytotoxicity assay, HT29; type: cell-based
Procedure: as §1

[10] = tested on: cisplatin-resistant ADDP ovarian (subclone of A2780) cancer cells; experiment: MTT in vitro cytotoxicity assay, ADDP; type: cell-based; conditions: 72 h drug exposure, n = 3, read-out: GI50 ± SEM, ADDP
Procedure: as §1

[11] = tested on: BE2-C neuroblastoma cells; experiment: MTT in vitro cytotoxicity assay, BE2-C; type: cell-based; conditions: 72 h drug exposure, n = 3, read-out: GI50 ± SEM, BE2-C
Procedure: as §1

[12] = tested on: MIA pancreas cancer cells; experiment: MTT in vitro cytotoxicity assay, MIA; type: cell-based; conditions: 72 h drug exposure, n = 3, read-out: GI50 ± SEM, MIA
Procedure: as §1

[13] = tested on: MCF-7 breast cancer cells; experiment: MTT in vitro cytotoxicity assay, MCF-7; type: cell-based
[14] = tested on: Du145 prostate cancer cells; experiment: MTT in vitro cytotoxicity assay, Du145; type: cell-based
Procedure: as §1

[15] = tested on: MCF-7 (breast cancer) cells; experiment: Cellular platinum uptake by ICP-MS, MCF-7; type: cell-based; conditions: at both 1.0 and 0.1 µM, 4 h
Procedure: Cellular uptake studies were carried out in MCF-7 (breast cancer) and MCF10A (healthy breast) cell lines. Reported in Table S2 are the numbers of cells per well that were seeded onto 12-well plates for each replicate and cell line. After incubating overnight at 37 °C, the cell culture medium was replaced with fresh media containing the test compounds at concentrations of 1.0 and 0.1 µM. After incubating for 4 h, the medium was removed, the cells were washed with PBS twice, and then incubated with trypsin solution until the cells dissociated from the plate. The harvested cells were then placed into an Eppendorf tube and PBS was added to a volume of 1 mL. Cell numbers were determined using trypan blue staining. Cell pellets were obtained after centrifugation and the cells were dispersed in 50 µL of MilliQ™ water and stored immediately at −20 °C until platinum analysis was conducted. These experiments were repeated in triplicate on three separate occasions.
Sixty-nine percent HNO3 (50 µL) was added to each sample and digested at 80 °C for 1.5 h, before being taken up to 1 mL with H2O. The platinum analysis was conducted using a PerkinElmer (Melbourne, Australia) NexION™ 300X inductively coupled plasma mass spectrometer (ICP-MS). A four-point calibration curve was produced by serial dilution of a certified platinum reference standard. The calibration was linear over the working range (R^2 > 0.9999) and the most abundant platinum isotope (m/z = 195) was monitored. The average values for three independent experiments were reported with standard deviations.

[16] = tested on: ADDP (subclone of A2780) versus A2780 ovarian cancer cell lines; experiment: Resistance factor, GI50 in ADDP/GI50 in A2780; type: cell-based

For `Cc1cc2ccc[n+]3c2c2c1ccc[n+]2[Pt-2]31([OH])([O]C(=O)CCCC[C@@H]2SC[C@@H]3NC(=O)N[C@@H]32)[NH2+][C@H]2CCCC[C@@H]2[NH2+]1.O=[N+]([O-])[O-].O=[N+]([O-])[O-]` [Complex 4, [Pt(5-methyl-1,10-phenanthroline)(1S,2S-diaminocyclohexane)(biotin)(hydroxido)](NO3)2], the “enhanced activity compared to platinum(II) precursor across the cancer cell lines” value ([1]; across all cancer cell lines) was ~ 2.3 fold, the GI50 ([1]; calculated from the panel of cancer cell lines tested (Table S4)) was 55 nM and the GI50 [2] was 31 ± 9 nM. For the same molecule, the GI50 [3] was 34 ± 5 nM, the GI50 [4] was 32 ± 10 nM and the GI50 [5] was 110 ± 20 nM. It also gave a GI50 [6] of 100 ± 30 nM, a GI50 [7] of 110 ± 30 nM and a logkw [8] of 0.74. For the same molecule, the GI50 ([9]; MTT, 72 h drug exposure, n = 3, read-out: GI50 ± SEM, HT29) was 28 ± 9 nM, the “number-fold potency against cisplatin, HT29 colon” value ([9]; ratio of GI50 values, 72 h) was 404 fold and the GI50 [10] was 29 ± 5 nM. It also gave a GI50 [11] of 100 ± 20 nM, a GI50 [12] of 20 ± 4 nM and a GI50 ([13]; MTT, 72 h drug exposure, n = 3, read-out: GI50 ± SEM, MCF-7) of 33 ± 4 nM. The “fold more active than its platinum(II) precursor in MCF-7” value ([13]; ratio of GI50 values) was 6 fold, the GI50 ([14]; MTT, 72 h drug exposure, n = 3, read-out: GI50 ± SEM, Du145) was 9 ± 4 nM and the “number-fold potency against cisplatin, Du145 prostate” value ([14]; ratio of GI50 values, 72 h) was 133 fold. For the same molecule, the “fold lower uptake in MCF-7 than its platinum(II) precursor” value [15] was ~ 2 fold and the “Resistance factor (RF)” value [16] was 0.853 and 0.85.
